Patent US8580809B2, “Filamin A-binding anti-inflammatory analgesic” (Pain Therapeutics, Inc., priority 2009, dated 2013)

Experiments:
[1] = system: primary human astrocytes; assay: LPS-induced cytokine release from primary human astrocytes; format: cell-based; settings: 2 hours prior to LPS and 24 hours
[2] = biological target: T1, mu opiate receptor (MOR) (Rattus norvegicus, UniProt P33535); assay: MOR agonist activity using [35S]GTPγS binding assay in striatal membranes; format: biochemical; settings: for MOR agonist activity, [35S]GTPγS binding to Gαo, FLNA-binding compound as agonist 0.1 μM: 0.1 μM compound; for MOR agonist activity, [35S]GTPγS binding to Gαo, FLNA-binding compound as agonist 0.1 μM / MOR agonist activity, [35S]GTPγS binding to Gαo, FLNA-binding compound as agonist 1 μM: striatal membranes; for MOR agonist activity, [35S]GTPγS binding to Gαo, 1 μM + BFNA: 1 μM compound + 1 μM β-funaltrexamine; for MOR agonist activity, [35S]GTPγS binding to Gαo, FLNA-binding compound as agonist 1 μM: 1 μM compound
T1 construct: from tissue; host or cells: rat striatal membrane preparation
Procedure: To assess the mu opiate receptor (MOR) agonist activity of positive compounds from the FLNA screening, compounds were tested in a [^35S]GTPγS binding assay using striatal membranes.
Striatal tissue was homogenized in 10 volumes of ice cold 25 mM HEPES buffer, pH 7.4, which contained 1 mM EGTA, 100 mM sucrose, 50 μg/ml leupeptin, 0.04 mM PMSF, 2 μg/ml soybean trypsin inhibitor and 0.2% 2-mercaptoethanol. The homogenates were centrifuged at 800×g for 5 minutes and the supernatants were centrifuged at 49,000×g for 20 minutes.
The resultant striatal membrane preparation (200 μg) was admixed and maintained (incubated) at 30° C. for 5 minutes in reaction buffer as above that additionally contained 1 mM MgCl2 and 0.5 nM [^35S]GTPγS (0.1 μCi/assay, PerkinElmer Life and Analytical Sciences) in a total volume of 250 μl and continued for 5 minutes in the absence or presence of 0.1-10 μM of an assayed compound of interest. The reaction was terminated by dilution with 750 μl of ice-cold reaction buffer that contained 20 mM MgCl2 and 1 mM EGTA and immediate centrifugation at 16,000×g for 5 minutes.
The resulting pellet was solubilized by sonicating for 10 seconds in 0.5 ml of immunoprecipitation buffer containing 0.5% digitonin, 0.2% sodium cholate and 0.5% NP-40. Normal rabbit serum (1 μl) was added to 1 ml of lysate and incubated at 25° C. for 30 minutes. Nonspecific immune complexes were removed by incubation with 25 μl of protein A/G-conjugated agarose beads at 25° C. for 30 minutes followed by centrifugation at 5,000×g at 4° C. for 5 minutes. The supernatant was divided and separately incubated at 25° C. for 30 minutes with antibodies raised against Gαo proteins (1:1,000 dilutions).
The immunocomplexes so formed were collected by incubation at 25° C. for 30 minutes with 40 μl of agarose-conjugated protein A/G beads and centrifugation at 5,000×g at 4° C. for 5 minutes. The pellet was washed and suspended in buffer containing 50 mM Tris-HCl, pH 8.0, and 1% NP-40. The radioactivity in the suspension was determined by liquid scintillation spectrometry. […] DAMGO (H-Tyr-D-Ala-Gly-N-MePhe-Gly-OH; 1 or 10 μM) was used as a positive control.

[3] = Mouse hot-water tail-flick test; format: in vivo; settings: for mean maximum antinociception amount: 56 mg/kg
Procedure: The mouse “tail flick” test was used to assay the relative antinociceptive activity of compositions containing a compound to be assayed. This assay was substantially that disclosed by Xie et al., 2005 J. Neurosci 25:409-416.
The mouse hot-water tail-flick test was performed by placing the distal third of the tail in a water bath maintained at 52° C. The latency until tail withdrawal from the bath was determined and compared among the treatments. A 10 second cutoff was used to avoid tissue damage. Data are converted to percentage of antinociception by the following formula: (response latency−baseline latency)/(cutoff−baseline latency)×100 to generate dose-response curves. […] Relative potency was determined as a ratio of the A50 values.
To assess tolerance to the antinociceptive effect, the compound was administered twice daily for 7 days at an A90 dose (dose that results in a 90% antinociceptive effect in the 52° C. warm-water tail-flick test), and the tail-flick test was performed daily after the a.m. dose.

[4] = biological target: MOR (Rattus norvegicus, UniProt P33535); assay: Relative Gs/Go switching: MOR-G protein coupling in organotypic striatal slice cultures; settings: for Go (MOR level in anti-Gαo immunoprecipitates), average / Gs/Go-Coupled Ratio, average / Gs/olf (MOR level in anti-Gαs/olf immunoprecipitates), average: striatal slice culture
Procedure: The threshold for significance was p<0.05.
Striatal slices (200 μM thickness) were prepared using a McIlwain tissue chopper (Mickle Laboratory Engineering Co., Surrey, UK).

[5] = biological target: FLNA VAKGL pentapeptide (Bn-VAKGL) (Homo sapiens, UniProt P21333); assay: FITC-NLX-based FLNA screening assay (FLNA peptide binding assay)
Procedure: Streptavidin-coated 96-well plates (Reacti-Bind™ NeutrAvidin™ High binding capacity coated 96-well plate, Pierce-ENDOGEN) are washed three times with 200 μl of 50 mM Tris HCl, pH 7.4 according to the manufacturer's recommendation.
Bn-VAKGL peptide (0.5 mg/plate) is dissolved in 50 μl DMSO and then added to 4450 μl of 50 mM Tris HCl, pH 7.4, containing 100 mM NaCl and protease inhibitors (binding medium) as well as 500 μl superblock in PBS (Pierce-ENDOGEN) [final concentration for DMSO: 1%].
The washed streptavidin-coated plates are contacted with 5 μg/well of Bn-VAKGL (100 μl) for 1 hour (incubated) with constant shaking at 25° C. [50 μl of Bn-VAKGL peptide solution from B+50 μl binding medium, final concentration for DMSO: 0.5%]. At the end of the incubation, the plate is washed three times with 200 μl of ice-cold 50 mM Tris HCl, pH 7.4.
The final assay volume is 100 μl. At the end of incubation, the plate is washed twice with 100 μl of ice-cold 50 mM Tris, pH 7.4. The signal, bound-FITC-NLX is detected using a DTX-880 multi-mode plate reader (Beckman).
To screen the medicinal chemistry analogs (new compounds), each compound solution (1 μl) is added to the Bn-VAKGL coated streptavidin plate with 50 μl/well of binding medium followed immediately with addition of 50 μl of FITC-NLX (total assay volume/well is 100 μl). The final screening concentration for each compound is 10 μM. […]

[6] = biological target: filamin A (Homo sapiens, UniProt P21333); settings: read-out: affinity of binding to filamin A; cited from earlier work
filamin A, sequence (P21333 whole entry): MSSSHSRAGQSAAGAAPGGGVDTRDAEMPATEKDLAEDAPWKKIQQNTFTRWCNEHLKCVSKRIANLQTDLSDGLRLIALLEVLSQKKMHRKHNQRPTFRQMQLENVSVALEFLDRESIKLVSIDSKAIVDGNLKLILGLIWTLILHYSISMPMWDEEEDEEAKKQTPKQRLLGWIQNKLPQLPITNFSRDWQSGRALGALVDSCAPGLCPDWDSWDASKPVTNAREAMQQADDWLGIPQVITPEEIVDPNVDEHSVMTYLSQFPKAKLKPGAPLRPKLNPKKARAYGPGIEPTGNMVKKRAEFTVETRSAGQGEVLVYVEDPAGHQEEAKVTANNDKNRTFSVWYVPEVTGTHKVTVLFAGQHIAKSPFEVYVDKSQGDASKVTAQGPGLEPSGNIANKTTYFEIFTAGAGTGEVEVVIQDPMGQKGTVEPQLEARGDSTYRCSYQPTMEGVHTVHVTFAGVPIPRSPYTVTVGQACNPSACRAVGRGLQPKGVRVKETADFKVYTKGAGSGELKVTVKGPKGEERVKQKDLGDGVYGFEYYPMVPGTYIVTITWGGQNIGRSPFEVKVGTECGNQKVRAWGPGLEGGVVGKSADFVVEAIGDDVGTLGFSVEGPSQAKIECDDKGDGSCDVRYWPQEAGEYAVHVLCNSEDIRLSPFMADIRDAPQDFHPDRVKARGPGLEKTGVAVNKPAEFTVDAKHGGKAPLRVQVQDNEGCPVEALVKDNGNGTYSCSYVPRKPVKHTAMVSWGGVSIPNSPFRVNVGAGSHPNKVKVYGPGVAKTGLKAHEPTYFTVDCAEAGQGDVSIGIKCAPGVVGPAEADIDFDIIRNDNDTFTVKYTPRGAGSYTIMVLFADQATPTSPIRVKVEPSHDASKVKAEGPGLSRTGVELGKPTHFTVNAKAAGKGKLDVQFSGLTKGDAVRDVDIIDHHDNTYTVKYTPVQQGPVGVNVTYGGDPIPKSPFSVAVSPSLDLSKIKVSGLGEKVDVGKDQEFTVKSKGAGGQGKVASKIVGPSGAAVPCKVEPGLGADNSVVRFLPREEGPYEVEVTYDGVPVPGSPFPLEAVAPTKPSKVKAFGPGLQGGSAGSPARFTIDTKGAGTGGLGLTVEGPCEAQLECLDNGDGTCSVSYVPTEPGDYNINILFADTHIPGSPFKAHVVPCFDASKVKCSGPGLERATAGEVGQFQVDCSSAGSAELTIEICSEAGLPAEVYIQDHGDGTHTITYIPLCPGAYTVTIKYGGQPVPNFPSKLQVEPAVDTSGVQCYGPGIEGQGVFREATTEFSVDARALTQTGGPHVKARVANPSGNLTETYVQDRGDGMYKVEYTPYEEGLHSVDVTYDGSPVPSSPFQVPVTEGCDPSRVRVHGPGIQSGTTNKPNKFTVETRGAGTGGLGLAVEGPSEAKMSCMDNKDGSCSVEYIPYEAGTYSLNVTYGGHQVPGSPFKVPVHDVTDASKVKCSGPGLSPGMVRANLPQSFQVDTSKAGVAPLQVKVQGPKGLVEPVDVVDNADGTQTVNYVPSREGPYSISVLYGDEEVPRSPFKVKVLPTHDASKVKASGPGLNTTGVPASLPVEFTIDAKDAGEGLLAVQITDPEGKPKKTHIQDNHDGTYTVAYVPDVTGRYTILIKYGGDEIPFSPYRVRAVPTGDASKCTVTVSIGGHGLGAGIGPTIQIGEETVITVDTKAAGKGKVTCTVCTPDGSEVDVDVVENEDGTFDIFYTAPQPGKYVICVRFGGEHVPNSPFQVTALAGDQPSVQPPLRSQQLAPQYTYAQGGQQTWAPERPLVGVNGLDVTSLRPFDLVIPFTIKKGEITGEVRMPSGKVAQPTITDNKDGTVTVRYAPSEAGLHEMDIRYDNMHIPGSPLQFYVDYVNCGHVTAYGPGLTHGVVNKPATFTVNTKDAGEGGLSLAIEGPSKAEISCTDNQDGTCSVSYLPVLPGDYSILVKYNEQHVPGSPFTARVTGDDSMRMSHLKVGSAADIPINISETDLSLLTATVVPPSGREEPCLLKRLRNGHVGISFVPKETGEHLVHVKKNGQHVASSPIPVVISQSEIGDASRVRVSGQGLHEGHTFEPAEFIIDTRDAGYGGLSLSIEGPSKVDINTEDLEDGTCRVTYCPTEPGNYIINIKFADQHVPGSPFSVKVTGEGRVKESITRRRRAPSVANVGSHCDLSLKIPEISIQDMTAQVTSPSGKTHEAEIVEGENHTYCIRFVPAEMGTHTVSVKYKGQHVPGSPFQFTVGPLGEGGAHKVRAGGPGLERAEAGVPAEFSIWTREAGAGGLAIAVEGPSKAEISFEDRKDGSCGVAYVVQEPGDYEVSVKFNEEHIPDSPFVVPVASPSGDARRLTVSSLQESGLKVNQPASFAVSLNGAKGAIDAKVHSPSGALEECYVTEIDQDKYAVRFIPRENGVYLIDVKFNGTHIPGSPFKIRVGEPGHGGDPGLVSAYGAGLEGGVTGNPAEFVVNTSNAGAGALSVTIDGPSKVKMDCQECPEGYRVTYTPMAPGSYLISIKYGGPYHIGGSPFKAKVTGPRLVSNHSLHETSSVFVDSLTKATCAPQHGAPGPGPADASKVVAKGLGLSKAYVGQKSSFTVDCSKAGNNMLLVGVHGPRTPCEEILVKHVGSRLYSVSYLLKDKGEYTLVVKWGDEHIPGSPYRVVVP

T1 sequence (P33535 whole entry): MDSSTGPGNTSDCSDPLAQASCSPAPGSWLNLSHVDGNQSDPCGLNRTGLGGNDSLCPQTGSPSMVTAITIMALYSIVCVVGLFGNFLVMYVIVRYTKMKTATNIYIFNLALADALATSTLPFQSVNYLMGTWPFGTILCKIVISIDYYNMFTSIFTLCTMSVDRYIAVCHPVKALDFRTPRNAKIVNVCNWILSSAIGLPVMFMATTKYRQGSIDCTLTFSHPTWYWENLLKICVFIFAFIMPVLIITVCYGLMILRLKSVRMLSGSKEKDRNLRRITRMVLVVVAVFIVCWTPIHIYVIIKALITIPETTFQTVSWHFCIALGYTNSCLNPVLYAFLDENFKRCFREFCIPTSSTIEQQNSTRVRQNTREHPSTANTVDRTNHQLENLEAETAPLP
MOR, sequence (P33535 whole entry): as above

C=CCN1CC[C@]23c4c5ccc(O)c4O[C@H]2C(=O)CC[C@]3(O)[C@H]1C5 [(+)Naloxone, (+)naloxone, reference compound]
IL-1β Average % (±SEM) ([1]; 10 pM): 75.9 (4.5) %
IL-6 Average % (±SEM) ([1]; 10 pM): 56.9 (4.4) %
TNF-α Average % (±SEM) ([1]; 10 pM): 58.6 (2.0) %
IL-1β Average % (±SEM) ([1]; 1 nM): 10.5 (4.8) %
IL-6 Average % (±SEM) ([1]; 1 nM): 6.8 (4.3) %
TNF-α Average % (±SEM) ([1]; 1 nM): 9.2 (6.0) %

COc1ccc(S(=O)(=O)N2CCOC23CCN(S(=O)(=O)c2ccc(C(C)=O)cc2)CC3)cc1 [Compound C0047]
MOR agonist activity, [35S]GTPγS binding to Gαo, FLNA-binding compound as agonist 0.1 μM [2]: 142.2%
MOR agonist activity, [35S]GTPγS binding to Gαo, 1 μM + BFNA [2]: 80.1%
MOR agonist activity, [35S]GTPγS binding to Gαo, FLNA-binding compound as agonist 1 μM [2]: 206.1%
mean maximum antinociception amount ([3]; at about 20-30 minutes): about 35%

CC(=O)c1ccc(S(=O)(=O)N2CCC3(CC2)OCCN3S(=O)(=O)c2ccc(C(C)=O)cc2)cc1 [Compound C0011]
MOR agonist activity, [35S]GTPγS binding to Gαo, FLNA-binding compound as agonist 0.1 μM [2]: 217.0%
MOR agonist activity, [35S]GTPγS binding to Gαo, 1 μM + BFNA [2]: 19.0%
MOR agonist activity, [35S]GTPγS binding to Gαo, FLNA-binding compound as agonist 1 μM [2]: 305.0%
mean maximum antinociception amount ([3]; oral, at about 10-20 minutes): about 70%
Go (MOR level in anti-Gαo immunoprecipitates), average ([4]; 10 μM): 1603.3
Gs/Go-Coupled Ratio, average ([4]; 10 μM): 0.332
Gs/olf (MOR level in anti-Gαs/olf immunoprecipitates), average ([4]; 10 μM): 534.3
Go (MOR level in anti-Gαo immunoprecipitates), average ([4]; 100 μM): 1598.8
Gs/Go-Coupled Ratio, average ([4]; 100 μM): 0.420
Gs/olf (MOR level in anti-Gαs/olf immunoprecipitates), average ([4]; 100 μM): 658.2

O=C(c1ccc([N+](=O)[O-])cc1)N1CCC2(CC1)OCCN2S(=O)(=O)c1ccc([N+](=O)[O-])cc1 [Compound C0033]
MOR agonist activity, [35S]GTPγS binding to Gαo, FLNA-binding compound as agonist 0.1 μM [2]: 134.5%
MOR agonist activity, [35S]GTPγS binding to Gαo, 1 μM + BFNA [2]: 76.6%
MOR agonist activity, [35S]GTPγS binding to Gαo, FLNA-binding compound as agonist 1 μM [2]: 186.4%
inhibition at 0.1 µM ([5]; read-out: Percent inhibition of FITC-NLX binding, 0.1 μM): 48.4%
inhibition at 1 µM ([5]; read-out: Percent inhibition of FITC-NLX binding, 1 μM): 51.3%

COc1ccc2c3c1O[C@H]1C(=O)CC[C@@]4(O)[C@@H](C2)N(C)CC[C@]314 [Oxycodone, oxycodone, reference compound]
Go (MOR level in anti-Gαo immunoprecipitates), average ([4]; 10 μM): 900.4
switch of μ opioid receptor G protein coupling from Go to Gs ([4]; 7 days of twice daily 1-hour exposures, organotypic striatal slice cultures): switch from Go to Gs coupling

O=C1CC[C@@]2(O)[C@H]3Cc4ccc(O)c5c4[C@@]2(CCN3CC2CC2)[C@H]1O5 [NTX, naltrexone]
Kd [6]: ~4 pM

C=CCN1CC[C@]23c4c5ccc(O)c4O[C@H]2C(=O)CC[C@@]3(O)[C@H]1C5 [Naloxone, naloxone]
Kd [6]: ~4 pM

CS(=O)(=O)c1ccc(S(=O)(=O)N2CCC3(CC2)OCCN3S(=O)(=O)c2ccc(S(C)(=O)=O)cc2)cc1 [Compound C0009]
MOR agonist activity, [35S]GTPγS binding to Gαo, FLNA-binding compound as agonist 0.1 μM [2]: 146.3%
MOR agonist activity, [35S]GTPγS binding to Gαo, 1 μM + BFNA [2]: 26.4%
MOR agonist activity, [35S]GTPγS binding to Gαo, FLNA-binding compound as agonist 1 μM [2]: 256.2%
mean maximum antinociception amount ([3]; oral, at about 10 minutes): about 50%

CC(=O)c1ccc(C(=O)N2CCC3(CC2)OCCN3S(=O)(=O)c2ccc(C(C)=O)cc2)cc1 [Compound C0052]
MOR agonist activity, [35S]GTPγS binding to Gαo, FLNA-binding compound as agonist 0.1 μM [2]: 108.4%
MOR agonist activity, [35S]GTPγS binding to Gαo, 1 μM + BFNA [2]: 42.7%
MOR agonist activity, [35S]GTPγS binding to Gαo, FLNA-binding compound as agonist 1 μM [2]: 162.8%
mean maximum antinociception amount ([3]; oral, at about 20 minutes): about 30%

O=S(=O)(c1ccc(Br)c(C(F)(F)F)c1)N1CCC2(CC1)OCCN2S(=O)(=O)c1ccc(Br)c(C(F)(F)F)c1 [Compound C0077]
MOR agonist activity, [35S]GTPγS binding to Gαo, FLNA-binding compound as agonist 0.1 μM [2]: 192.7%
MOR agonist activity, [35S]GTPγS binding to Gαo, 1 μM + BFNA [2]: 136.7%
MOR agonist activity, [35S]GTPγS binding to Gαo, FLNA-binding compound as agonist 1 μM [2]: 265.4%

O=C1CN(Cc2ccccc2)C2(CCN(S(=O)(=O)c3cc(Cl)c(O)c(Cl)c3)CC2)N1 [Compound C0139M]
MOR agonist activity, [35S]GTPγS binding to Gαo, FLNA-binding compound as agonist 0.1 μM [2]: 156.1%
MOR agonist activity, [35S]GTPγS binding to Gαo, 1 μM + BFNA [2]: 51.0%
MOR agonist activity, [35S]GTPγS binding to Gαo, FLNA-binding compound as agonist 1 μM [2]: 206.6%
IL-1β Average % (±SEM) ([1]; 10 pM): 83.4 (3.0) %
IL-6 Average % (±SEM) ([1]; 10 pM): 76.6 (3.1) %
TNF-α Average % (±SEM) ([1]; 10 pM): 77.0 (3.2) %
IL-1β Average % (±SEM) ([1]; 1 nM): 78.2 (0.7) %
IL-6 Average % (±SEM) ([1]; 1 nM): 80.1 (7.0) %
TNF-α Average % (±SEM) ([1]; 1 nM): 77.5 (1.8) %
IL-1β Average % (±SEM) ([1]; 100 nM): 70.5 (1.6) %
IL-6 Average % (±SEM) ([1]; 100 nM): 80.2 (6.3) %
TNF-α Average % (±SEM) ([1]; 100 nM): 72.7 (2.5) %
IL-1β Average % (±SEM) ([1]; 100 fM): 84.5 (2.6) %
IL-6 Average % (±SEM) ([1]; 100 fM): 82.6 (1.6) %
TNF-α Average % (±SEM) ([1]; 100 fM): 74.8 (4.3) %

COc1ccc(S(=O)(=O)N2CCC3(CC2)OCCN3S(=O)(=O)c2ccc(C(C)=O)cc2)cc1 [Compound C0048]
MOR agonist activity, [35S]GTPγS binding to Gαo, FLNA-binding compound as agonist 0.1 μM [2]: 209.1%
MOR agonist activity, [35S]GTPγS binding to Gαo, 1 μM + BFNA [2]: 89.9%
MOR agonist activity, [35S]GTPγS binding to Gαo, FLNA-binding compound as agonist 1 μM [2]: 245.3%

CC(=O)c1ccc(S(=O)(=O)N2CCC3(CC2)NC(=O)CN3Cc2ccccc2)cc1 [Compound C0085M]
MOR agonist activity, [35S]GTPγS binding to Gαo, FLNA-binding compound as agonist 0.1 μM [2]: 211.6%
MOR agonist activity, [35S]GTPγS binding to Gαo, 1 μM + BFNA [2]: 43.7%
MOR agonist activity, [35S]GTPγS binding to Gαo, FLNA-binding compound as agonist 1 μM [2]: 246.2%

CN1CC[C@]23c4c5ccc(O)c4O[C@H]2[C@@H](O)C=C[C@H]3[C@H]1C5 [morphine, reference compound]
A50 value (95% confidence interval) ([3]; orally administered, mouse, 52° C. tail flick): 61.8 (52.4−72.9) mg/kg
